Results reported in patent publication US11535643B2, “Macrolides with modified desosamine sugars and uses thereof” (President and Fellows of Harvard College, priority 2015, dated 2022).
In brackets after ≈: the same amount, converted by molar mass.

Legend:
Assay type in all cases: cell-based
A. baumannii = assay: Broth dilution MIC determination (CLSI) against A. baumannii strains
Summary of the method: (§1)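 Strains, including multidrug-resistant and macrolide-resistant ones, were exposed to macrolides in broth dilution per CLSI standards, and the lowest inhibiting concentration was recorded as MIC. Azithromycin and solithromycin were run alongside.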

K. pneumoniae = assay: Broth dilution MIC determination (CLSI) against K. pneumoniae strains
Summary of the method: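 Azithromycin and solithromycin served as controls; MICs were obtained by standard CLSI broth dilution on a strain panel including multidrug-resistant and macrolide-resistant isolates.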

P. aeruginosa = assay: Broth dilution MIC determination (CLSI) against P. aeruginosa strains
Summary of the method: as §1

E. coli = assay: Broth dilution MIC determination (CLSI) against E. coli strains
Summary of the method: as §1

S. pneumoniae = assay: Broth dilution MIC determination (CLSI) against S. pneumoniae strains
From the text: (§2) Minimum inhibitory concentrations (MICs) for macrolides described herein have been determined for unique strains of S. aureus, S. pneumoniae, S. pyogenes, E. faecalis, E. coli, A. baumannii, K. pneumoniae, P. aeruginosa, and H. influenzae, including several multidrug-resistant strains, with a special focus on macrolide resistant mechanisms. Azithromycin and solithromycin were included as control compounds. CLSI standard procedures for broth dilution MIC determination were used. Data for exemplary compounds described herein is shown in Tables M1-M7 and in Tables N1-N4.

S. aureus = assay: Broth dilution MIC determination (CLSI) against S. aureus strains
Summary of the method: as §1

S. pyogenes = assay: Broth dilution MIC determination (CLSI) against S. pyogenes strains
From the text: as §2

E. faecalis = assay: Broth dilution MIC determination (CLSI) against E. faecalis strains
From the text: as §2

For `CCC1OC(=O)C(C)C(=O)C(C)C(OC2OC(C)CC(N(C)Cc3cccnc3)C2O)C(C)(OC)CC(C)CNC(C)C2N(CCCCn3cc(-c4cccc(N)c4)nn3)C(=O)OC12C` (stereo not drawn) [FSM-120385], which MIC (A. baumannii; A. baumannii ATCC19606, strain MP-15 (Table N2)) is on record?
Its MIC is 16 µg/mL (≈ 17.7 µM).

What about the MIC (A. baumannii; A. baumannii clinical, strain MP576 (Table N2)) of the same molecule?
Its MIC is greater than 64 µg/mL.

And the MIC (A. baumannii; A. baumannii clinical, strain MP577 (Table N2))?
The MIC was 64 µg/mL (≈ 70.7 µM).

And the MIC (K. pneumoniae; K pneumomae ATCC10031, strain MP-14 (Table N2))?
Its MIC is 8 µg/mL (≈ 8.84 µM).

And the MIC (K. pneumoniae; K. pneumoniae clinical, strain MP546 (Table N2))?
The MIC was greater than 64 µg/mL.

What about the MIC (K. pneumoniae; K. pneumoniae clinical, strain MP548 (Table N2)) of the same molecule?
The MIC was greater than 64 µg/mL.

And the MIC (P. aeruginosa; P. aeruginosa ATCC27853, strain MP-3 (Table N2))?
The MIC was greater than 64 µg/mL.

What about the MIC (P. aeruginosa; P. aeruginosa PAO1, strain MP-7 (Table N2)) of the same molecule?
The MIC was greater than 64 µg/mL.

And the MIC (P. aeruginosa; P. aeruginosa PAO1:mex, strain MP-8 (Table N2))?
Its MIC is 32 µg/mL (≈ 35.4 µM).

What about the MIC (E. coli; E. coli ATCC25922, strain MP-4 (Table N2)) of the same molecule?
The MIC was 64 µg/mL (≈ 70.7 µM).

And the MIC (E. coli; E. coli ATCC25922:tolC, strain MP-9 (Table N2))?
The MIC was 4 µg/mL (≈ 4.42 µM).

And the MIC (E. coli; E. coli clinical, strain MP541 (Table N2))?
Its MIC is 64 µg/mL (≈ 70.7 µM).

And the MIC (E. coli; E. coli clinical-cErm, strain MP532 (Table N2))?
The MIC was greater than 64 µg/mL.

And the MIC (S. pneumoniae; S. pneumoniae ATCC49619, strain MP-21 (Table N2))?
Its MIC is 0.06 µg/mL (≈ 0.0663 µM).

And the MIC (S. pneumoniae; S. pneumoniae mefA, strain MP-626 UNT-038 (Table N2))?
Its MIC is 0.125 µg/mL (≈ 0.138 µM).

What about the MIC (S. pneumoniae; S. pneumoniae mefA, strain MP-627 UNT-039 (Table N2)) of the same molecule?
The MIC was 0.25 µg/mL (≈ 0.276 µM).

And the MIC (S. aureus; S. aureus (MRSA) GISA USA600, strain MP-619 UNT-120 (Table N2))?
Its MIC is greater than 64 µg/mL.

And the MIC (S. aureus; S. aureus (MRSA) ST-228 cErm, strain MP-513 (Table N2))?
The MIC was greater than 64 µg/mL.

And the MIC (S. aureus; S. aureus (MRSA) USA100, strain MP-618 UNT-096 (Table N2))?
Its MIC is greater than 64 µg/mL.

What about the MIC (S. aureus; S. aureus (MRSA) USA300, strain MP-549 (Table N2)) of the same molecule?
The MIC was 16 µg/mL (≈ 17.7 µM).

And the MIC (S. aureus; S. aureus (MRSA) ermA phenotype, strain MP-620 UNT-146 (Table N2))?
The MIC was greater than 64 µg/mL.

And the MIC (S. aureus; S. aureus ATCC29213, strain MP-12 (Table N2))?
The MIC was 4 µg/mL (≈ 4.42 µM).

What about the MIC (S. aureus; S. aureus ATCCBAA-977, strain MP-17 (Table N2)) of the same molecule?
The MIC was 4 µg/mL (≈ 4.42 µM).

What about the MIC (S. pyogenes; S. pyogenes ATCC19615, strain MP-19 (Table N2)) of the same molecule?
Its MIC is less than 0.03 µg/mL.

And the MIC (S. pyogenes; S. pyogenes mac resistant, strain MP-625 UNT-014 (Table N2))?
Its MIC is 1 µg/mL (≈ 1.1 µM).

And the MIC (E. faecalis; E. faecalis ATCC29212, strain MP-24 (Table N2))?
Its MIC is 1 µg/mL (≈ 1.1 µM).

And the MIC (E. faecalis; E. faecalis van resistant, strain UNT-039 (Table N2))?
Its MIC is greater than 64 µg/mL.

`CCC1OC(=O)C(C)C(=O)C(C)C(OC2OC(CNCc3ccc(F)cc3)CC(N(C)C)C2O)C(C)(OC)CC(C)CNC(C)C2N(CCCCn3cc(-c4cccc(N)c4)nn3)C(=O)OC12C` (stereo not drawn) [FSM-120391] was tested. Which “MIC A. baumannii ATCC19606” value (A. baumannii; ATCC19606, Strain No. MP-15) did it give?
Its value is 64 µg/mL (≈ 67.3 µM).

What about the “MIC A. baumannii clinical” value (A. baumannii; Strain No. MP576) of the same molecule?
The value was greater than 64 µg/mL.

And the “MIC A. baumannii clinical” value (A. baumannii; Strain No. MP577)?
Its value is 16 µg/mL (≈ 16.8 µM).

What about the “MIC K. pneumoniae ATCC10031” value (K. pneumoniae; ATCC10031, Strain No. MP-14) of the same molecule?
Its value is 4 µg/mL (≈ 4.21 µM).

What about the “MIC K. pneumoniae clinical” value (K. pneumoniae; Strain No. MP546) of the same molecule?
The value was 64 µg/mL (≈ 67.3 µM).

And the “MIC K. pneumoniae clinical” value (K. pneumoniae; Strain No. MP548)?
Its value is 32 µg/mL (≈ 33.6 µM).

What about the “MIC P. aeruginosa ATCC27853” value (P. aeruginosa; ATCC27853, Strain No. MP-3) of the same molecule?
The value was 64 µg/mL (≈ 67.3 µM).

What about the “MIC P. aeruginosa PAO1” value (P. aeruginosa; PAO1, Strain No. MP-7) of the same molecule?
The value was greater than 64 µg/mL.

What about the “MIC P. aeruginosa PAO1:mex” value (P. aeruginosa; PAO1:mex, Strain No. MP-8) of the same molecule?
The value was 16 µg/mL (≈ 16.8 µM).

And the “MIC E. coli ATCC25922” value (E. coli; ATCC25922, Strain No. MP-4)?
The value was 4 µg/mL (≈ 4.21 µM).

What about the “MIC E. coli ATCC25922:tolC” value (E. coli; ATCC25922:tolC, Strain No. MP-9) of the same molecule?
Its value is 0.25 µg/mL (≈ 0.263 µM).

What about the “MIC E. coli clinical” value (E. coli; clinical, Strain No. MP541) of the same molecule?
Its value is 8 µg/mL (≈ 8.41 µM).

And the “MIC E. coli clinical-cErm” value (E. coli; clinical-cErm, Strain No. MP532)?
The value was greater than 64 µg/mL.

What about the “MIC S. pneumoniae ATCC49619” value (S. pneumoniae; ATCC49619, Strain No. MP-21) of the same molecule?
The value was less than 0.03 µg/mL.

What about the “MIC S. pneumoniae mefA” value (S. pneumoniae; Strain No. MP-626 UNT-038) of the same molecule?
Its value is 0.06 µg/mL (≈ 0.0631 µM).

What about the “MIC S. pneumoniae mefA” value (S. pneumoniae; Strain No. MP-627 UNT-039) of the same molecule?
Its value is 0.125 µg/mL (≈ 0.131 µM).

And the “MIC S. aureus ATCC29213” value (S. aureus; ATCC29213, Strain No. MP-12)?
The value was 4 µg/mL (≈ 4.21 µM).

And the “MIC S. aureus ATCCBAA-977” value (S. aureus; ATCCBAA-977, Strain No. MP-17)?
The value was 4 µg/mL (≈ 4.21 µM).

And the “MIC S. aureus (MRSA) GISA USA600” value (S. aureus; GISA USA600, Strain No. MP-619 UNT-120)?
Its value is greater than 64 µg/mL.

What about the “MIC S. aureus (MRSA) ST-228 cErm” value (S. aureus; ST-228 cErm, Strain No. MP-513) of the same molecule?
The value was greater than 64 µg/mL.

And the “MIC S. aureus (MRSA) USA100” value (S. aureus; USA100, Strain No. MP-618 UNT-096)?
The value was greater than 64 µg/mL.

And the “MIC S. aureus (MRSA) USA300” value (S. aureus; USA300, Strain No. MP-549)?
The value was 4 µg/mL (≈ 4.21 µM).

What about the “MIC S. aureus (MRSA) ermA phenotype” value (S. aureus; ermA phenotype, Strain No. MP-620 UNT-146) of the same molecule?
Its value is greater than 64 µg/mL.

And the “MIC S. pyogenes ATCC19615” value (S. pyogenes; ATCC19615, Strain No. MP-19)?
The value was less than 0.03 µg/mL.

And the “MIC S. pyogenes mac resistant” value (S. pyogenes; mac resistant, Strain No. MP-625 UNT-014)?
The value was 0.5 µg/mL (≈ 0.526 µM).

And the “MIC E. faecalis ATCC29212” value (E. faecalis; ATCC29212, Strain No. MP-24)?
Its value is 1 µg/mL (≈ 1.05 µM).

What about the “MIC E. faecalis van resistant” value (E. faecalis; van resistant, Strain No. UNT-039) of the same molecule?
Its value is greater than 64 µg/mL.
